Reference: US20240082125A1, “USE OF A SHORT CHAIN FATTY ACID AS ANTIDANDRUFF AGENT” (NANYANG TECHNOLOGICAL UNIVERSITY, priority 2020, published 2024)
“And” between values parts separate entries of the source, which are not always exact repeats. Identical values can stand only once.

How the values were obtained:
[1] = system: M. restricta ATCC MYA-4611; assay: M. restricta growth assay, total cell numbers by SYTO9 fluorescence; type: cell-based, Malassezia restricta; conditions: for M. restricta (log10 total cell counts): 50 mM, after 72 hours, SYTO9, starting density 1×10^7 cells/ml, replicates #1-#3; for growth of Malassezia restricta: 30 mM, MD medium pH 6, FIG. 1
Protocol: (§1) M. restricta ATCC MYA-4611, S. epidermidis ATCC 12228, and C. acnes ATCC 6919 were purchased from ATCC. M. restricta was routinely cultured in modified Dixon (MD) medium (pH 6), composed of 36 g of Malt extract (Sigma 70167), 20 g of Dessicated Oxbile (Sigma 70168), 6 g of Bacto™ Peptone (BD 211677), 1% (v/v) Tween 40 (Sigma P1504), 0.2% (v/v) Oleic Acid (Fluka 75096), and 0.2% (v/v) Glycerol (Promega H5433) in 1 liter of dH2O. C. acnes and S. epidermidis were cultured in modified brain heart infusion (MBHI) medium (pH 7), containing 37 g of BHI base (Accumedia 7116B), 0.4% (v/v) of Tween-40 (Sigma P1504), 0.2% (v/v) of Oleic acid (Fluka 75096), and 0.2% (v/v) of Glycerol (Promega H5433) in 1 liter of dH2O. M. restricta and S. epidermidis were routinely grown under aerobic conditions, shaken at 200 rpm, and C. acnes was grown under anaerobic conditions. All organisms were grown at 33° C. Wherever required, media was supplemented with: sodium acetate (CH3COOH, Sigma Ref. 32319), sodium propionate ([…], Sigma Ref. P1880), sodium butyrate (CH3(CH2)2COOH, Sigma Ref. 303410), valeric acid (CH3(CH2)3COOH, Fluka Ref. 75054). For valeric acid, the pH in modified cell media was neutralized with NaOH (Sodium hydroxide, Sigma 283060).
M. restricta cells from 1 ml of the culture were harvested by centrifugation at 10,000×g for 5 minutes at room temperature. Cells were washed once, pelleted, and re-suspended in 0.9% NaCl solution. Equal volumes of the above cell suspension and SYTO 9 working stock (3 ul SYTO 9 component of the Live/Dead BacLight bacterial viability kit, ThermoFisher Scientific, L7012, diluted in 1 ml of 0.9% NaCl solution) were mixed well, incubated in dark for 10 minutes, and fluorescent intensity unit was measured in a Tecan microplate reader with excitation/emission wavelengths of 485/530 nm. A standard for correlation of fluorescence units and concentration was prepared using a fluorimeter and hemocytometer under a light microscope. This standard curve was used to calculate the total cell numbers.
(§2) M. restricta cells stored as glycerol stocks (30% glycerol in MD medium) were revived by plating on MD agar plates and incubated for 2-3 days at 33° C. A pre-culture was made from the lawn of cells grown on the agar plate. Cells from % of the plate was scrapped off, homogenized after suspending in 70 ml of MD medium in a 250 ml baffled erlenmeyer flask and incubated for 24 hours at 33° C. at 200 rpm. For experiments, 10^7 cell/ml was inoculated in fresh MD medium with or without the short chain fatty acids. Growth was monitored by measuring the cell density with SYTO 9 for up to 24 hours or 96 hours. C. acnes and S. epidermidis were inoculated into MBHI medium at starting cell density of OD600 0.05 and 0.25, respectively. Bacterial growth was measured by plating the serially diluted cultures on Brain Heart Infusion agar plates at different time points and colonies were counted after 72 hours for C. acnes and 24 hours for S. epidermidis.
(§3) M. restricta ATCC MYA-4611, S. epidermidis ATCC 12228 and C. acnes ATCC 6919 were purchased from ATCC. M. restricta were routinely cultured in Modified Dixon (MD) medium (pH 6), composed of 36 g of Malt extract (Sigma 70167), 20 g of Dessicated Oxbile (Sigma 70168), 6 g of Bacto™ Peptone (BD 211677), 1% (v/v) Tween 40 (Sigma P1504), 0.2% (v/v) Oleic Acid (Fluka 75096), and 0.2% (v/v) Glycerol (Promega H5433) in 1 liter of dH2O. C. acnes and S. epidermidis were cultured in modified brain heart infusion (MBHI) medium (pH 7), containing 37 g of BHI base (Accumedia 7116B), 0.4% (v/v) of Tween-40 (Sigma P1504), 0.2% (v/v) of Oleic acid (Fluka 75096), and 0.2% (v/v) of Glycerol (Promega H5433) in 1 liter of dH2O. M. restricta and S. epidermidis were routinely grown under aerobic conditions, shaken at 200 rpm, and C. acnes was grown under anaerobic conditions. All organisms were grown at 33° C.

[2] = system: S. epidermidis ATCC 12228; assay: S. epidermidis growth assay, colony forming units; type: cell-based, Staphylococcus epidermidis; conditions: for S. epidermidis (log10 CFUs/ml): 50 mM, after 24 hours, replicates #1-#3; for growth of S. epidermidis: 30 mM, MBHI medium pH 7, aerobic, FIG. 3
Protocol: as §1, §2
(§4) Bacterial growth was quantified by plating the serially diluted cultures on Brain Heart Infusion agar plates at different time points and colonies were counted after 72 hours for C. acnes and 24 hours for Staphylococcus sp.
(§5) M. restricta ATCC MYA-4611, S. epidermidis ATCC 12228 and C. acnes ATCC 6919 were purchased from ATCC. M. restricta were routinely cultured in Modified Dixon (MD) medium (pH 6), composed of 36 g of Malt extract (Sigma 70167), 20 g of Dessicated Oxbile (Sigma 70168), 6 g of Bacto™ Peptone (BD 211677), 1% (v/v) Tween 40 (Sigma P1504), 0.2% (v/v) Oleic Acid (Fluka 75096), and 0.2% (v/v) Glycerol (Promega H5433) in 1 liter of dH2O. C. acnes and S. epidermidis were cultured in modified brain heart infusion (MBHI) medium (pH 7), containing 37 g of BHI base (Accumedia 7116B), 0.4% (v/v) of Tween-40 (Sigma P1504), 0.2% (v/v) of Oleic acid (Fluka 75096), and 0.2% (v/v) of Glycerol (Promega H5433) in 1 liter of dH2O. M. restricta and S. epidermidis were routinely grown under aerobic conditions, shaken at 200 rpm, and C. acnes was grown under anaerobic conditions. All organisms were grown at 33° C. Wherever required, media was supplemented with 50 mM of: sodium propionate ([…], Sigma Ref. P1880), sodium butyrate (CH3(CH2)2COOH, Sigma Ref. 303410), valeric acid (CH3(CH2)3COOH, Fluka Ref. 75054). For valeric acid, the pH in modified cell media was neutralized with NaOH (Sodium hydroxide, Sigma 283060).
(§6) M. restricta cells stored as glycerol stocks (30% glycerol in MD medium) were revived by plating on MD agar plates and incubated for 2-3 days at 33° C. A pre-culture was made from the lawn of cells grown on the agar plate.

C. acnes ATCC 6919 = assay: C. acnes growth assay, colony forming units; type: cell-based, Cutibacterium acnes; conditions: for C. acnes (log10 CFUs/ml): 50 mM, after 72 hours, replicates #1-#3; for growth of C. acnes: 30 mM, MBHI medium pH 7, anaerobic, FIG. 2
Protocol: as §1, §2, §4, §5, §6

[3] = system: M. restricta ATCC MYA-4611; assay: M. restricta cell viability by ATP estimation (BacTiterGlo); type: cell-based, Malassezia restricta; conditions: 50 mM, ATP in lysate of 24 hours grown cells, replicates #1-#3
Protocol: as §3, with “M. restricta and S. epidermidis were routinely grown under aerobic conditions, shaken at 200 rpm, and C. acnes was grown under anaerobic conditions. All organisms were grown at 33° C.” left out
M. restricta cells stored as glycerol stocks (30% glycerol in MD medium) were revived by plating on MD agar plates and incubated for 2-3 days at 33° C. […] Growth was monitored by measuring the cell density with SYTO 9 or by estimating the ATP concentration (see below) for up to 24 hours or 96 hours. […] Bacterial growth was measured by plating the serially diluted cultures on Brain Heart Infusion agar plates at different time points and colonies were counted after 72 hours for C. acnes and 24 hours for S. epidermidis.
Cellular ATP was measured using the BacTiterGlo Microbial cell viability (Promega) kit following manufacturers protocol. […]

Row | SMILES | M. restricta (log10 total cell counts) [1] | S. epidermidis (log10 CFUs/ml) [2] | C. acnes (log10 CFUs/ml) (C. acnes ATCC 6919) | M. restricta (Relative luminescence units) [3] | growth of Malassezia restricta [1] | growth of S. epidermidis [2] | growth of C. acnes (C. acnes ATCC 6919)
1 | CCCCCC(=O)O [Cpo, caproic acid] | 6.93 log10 total cell counts and 6.95 log10 total cell counts and 6.87 log10 total cell counts | 7.64 log10 CFUs/ml and 7.67 log10 CFUs/ml and 7.57 log10 CFUs/ml | 8.29 log10 CFUs/ml and 8.26 log10 CFUs/ml and 8.41 log10 CFUs/ml | – | – | – | –
2 | CCC(=O)[O-].CCC(=O)[O-].[Zn+2] [Zn_Pro, zinc propionate] | – | 5.00 log10 CFUs/ml and 5.05 log10 CFUs/ml and 0.00 log10 CFUs/ml | 0.00 log10 CFUs/ml | 12500 Relative luminescence units and 11900 Relative luminescence units and 10300 Relative luminescence units | – | – | –
3 | CCCCC(=O)[O-].[Na+] [NaV, sodium valerate] | 6.86 log10 total cell counts and 6.92 log10 total cell counts and 6.93 log10 total cell counts | 8.90 log10 CFUs/ml and 9.29 log10 CFUs/ml and 9.08 log10 CFUs/ml | 8.90 log10 CFUs/ml and 8.03 log10 CFUs/ml and 8.00 log10 CFUs/ml | – | completely inhibit | do not affect | do not affect
4 | CCCCCCCC(=O)OCC(O)CO (stereo not shown) [GM_Cpy, glyceryl mono caprylate] | – | 0.00 log10 CFUs/ml | 0.00 log10 CFUs/ml | 16700 Relative luminescence units and −1470 Relative luminescence units and −2030 Relative luminescence units | – | – | –
5 | CCCC(=O)[O-].[Na+] [NaB, sodium butyrate] | 6.94 log10 total cell counts and 6.88 log10 total cell counts (2×) | 9.15 log10 CFUs/ml and 8.87 log10 CFUs/ml and 8.90 log10 CFUs/ml | 8.26 log10 CFUs/ml and 8.10 log10 CFUs/ml and 8.34 log10 CFUs/ml | – | completely inhibit | do not affect | do not affect
6 | CCCCCC(=O)OCC [EH_Cpo, ethyl caproate] | 6.80 log10 total cell counts and 6.69 log10 total cell counts and 6.74 log10 total cell counts | 5.55 log10 CFUs/ml and 5.54 log10 CFUs/ml and 5.66 log10 CFUs/ml | 9.94 log10 CFUs/ml and 8.47 log10 CFUs/ml and 8.00 log10 CFUs/ml | – | – | – | –
7 | CCCCCCCC(=O)O [Cpy, caprylic acid] | 6.98 log10 total cell counts and 6.91 log10 total cell counts and 6.84 log10 total cell counts | 3.34 log10 CFUs/ml and 3.03 log10 CFUs/ml and 3.00 log10 CFUs/ml | 0.00 log10 CFUs/ml | – | – | – | –
8 | CC(=O)[O-].[Na+] [acetate, sodium acetate] | – | – | – | – | No effect | – | –
